What was measured:
[1] = test system: BALB/c mice; assay: In vivo translation efficacy of FLuc-encoding mRNA-LNPs (whole body bioluminescence); settings: 10 μg mRNA i.v., 4, 8 and 24 h
Procedure: (§1) Two reporters were selected to determine in vivo protein production: firefly luciferase (FLuc) and human erythropoietin (hEPO). The mRNA encoding each gene was obtained by IVT using T7 RNA polymerase for co-transcriptional capping with m^7Gppp^5′SAmpG and m^7GpppAmpG as the reference cap structure. 500 μl or 1000 μl of the IVT mix (for obtaining mRNA encoding hEPO or FLuc, respectively) contained following components at indicated final concentration: transcription buffer with 2 mM spermidine and Bis-Tris pH 6.5, 1 U/μl RNase inhibitor (RiboLock, ThermoFisher Scientific), 5 mM ATP, CTP and UTP, 4 mM GTP, 10 mM DTT, 25 mM MgCl2, 0.002 U/μl inorganic pyrophosphatase (ThermoFisher Scientific), 10 mM m^7GpppAmpG or m^7Gppp^5’SAmpG, 40 ng/μl linearized plasmid as the DNA template and 0.125 μg/μl T7 RNA polymerase (in-house prepared). All components were gently mixed by pipetting and incubated for one hour at 37°C. After DNA template removal, obtained mRNA was initially purified using oligo(dT)25 resin, as previously described, and concentrated by ultrafiltration (Amicon Ultra-15 50K or 100K, Millipore) prior loading on preparative column. […] Eluate quality was analyzed on 1 × TBE 1.2% agarose gel, and the fractions containing mRNA of the highest purity were combined, desalted by ultrafiltration (Amicon Ultra-15 50K or 100K, Millipore), and precipitated. […]

[2] = test system: C57BL/6 mice; assay: In vivo translation efficacy of hEPO-encoding mRNA-LNPs (serum hEPO ELISA); settings: 1 μg mRNA i.v., 4, 8, 24 and 48 h
Procedure: as §1

For `CO[C@@H]1[C@H](OP(=O)(O)OC[C@H]2O[C@@H](n3cnc4c(=O)[nH]c(N)nc43)[C@H](O)[C@@H]2O)[C@@H](CSP(=O)([O-])OP(=O)(O)OP(=O)(O)OC[C@H]2O[C@@H](n3c[n+](C)c4c(O)nc(N)nc43)[C@H](O)[C@@H]2O)O[C@H]1n1cnc2c(N)ncnc21` [Compound 8, m^7Gppp^5’SAmpG], the “FLuc protein expression (whole body bioluminescence) versus m^7GpppAmpG-capped mRNA (in words)” value ([1]; GeneVoy LNP) was “the effect was the opposite”, the “FLuc protein expression (whole body bioluminescence) versus m^7GpppAmpG-capped mRNA (in words)” value ([1]; SM-102 LNP) was “no significant differences” and the “serum hEPO protein expression versus m^7GpppAmpG-capped mRNA (in words)” value ([2]; MC3 LNP) was “slight increase in protein expression”. The “serum hEPO protein expression versus m^7GpppAmpG-capped mRNA (in words)” value ([2]; SM-102 LNP) was “no significant differences”.
